17 molecules from PubChem BioAssay (NCI) can be followed below.

Holding throughout (experiment): NCI anticancer screen, dose series, 48 h
Experiment [1] relates to HS 578T breast.
Experiment [2] concerns NCI-H23 lung.
The subject of experiment [3] is SF-268 CNS.
Experiment [4] concerns SK-MEL-2 melanoma.
Experiment [5] concerns SK-MEL-5 melanoma.
Experiment [6] deals with SN12C renal.
Experiment [7] has as its system SNB-75 CNS.
For experiment [8], the system named is TK-10 renal.
Experiment [9] concerns UACC-62 melanoma.
Experiment [10] concerns UO-31 renal.

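Briefly, cells in 96-well plates were exposed to five compound concentrations for 48 h, and endpoints were estimated by linear interpolation. TGI: total growth inhibition.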 Bounds are passed on as bounds.

Take `COC(=O)c1c(C)cccc1C1CN=NC12Cc1cccc(C)c1C2=O` (stereo not given): the TGI in [1] is greater than 100 µM; in experiment [2], greater than 100 µM; in [3] it was greater than 100 µM; in [4], 94.7 µM; in experiment [5], 40.1 µM; in experiment [6], greater than 100 µM. The TGI is greater than 100 µM in experiment [7], greater than 100 µM in experiment [8], 74 µM in experiment [9] and 67.7 µM in experiment [10].
`Cc1sc2nc3n(sc4nc5sc(C)c(C)c5c(=O)n43)c(=O)c2c1C`: the TGI in [1], in experiment [2], in experiment [3], in experiment [4], in [5] and in experiment [6] was greater than 100 µM each time. Also, the TGI in [7] was 43.4 µM; in experiment [8] it was greater than 100 µM; in experiment [9], 87.6 µM; in [10], greater than 100 µM.
`CCOC(=O)c1nc2ccccc2nc1Nc1ccc(F)cc1`: the TGI in experiment [1] was greater than 84.8 µM; in experiment [2], 69.1 µM; in [3], 30 µM; in experiment [4], greater than 83.4 µM; in [5] it was greater than 100 µM; in [6] it was greater than 100 µM. The TGI in [7] was 18.5 µM; in experiment [8], greater than 100 µM; in experiment [9], greater than 100 µM; in [10], greater than 100 µM.
`COC(=O)NC(Nc1ccc(C)cc1)(C(F)(F)F)C(F)(F)F`: the TGI in [1], in [2], in experiment [3], in experiment [4], in experiment [5] and in [6] was greater than 100 µM throughout. In addition, the TGI in experiment [7], in [8], in experiment [9] and in [10] was greater than 100 µM in each case.
In the case of `Cc1cc(C)c(C#N)c(SC(=S)NC(=O)c2ccccc2)n1`, the TGI in [1], in [2], in [3], in experiment [4], in experiment [5] and in experiment [6] was greater than 100 µM in each case. Moreover, the TGI in experiment [7], in experiment [8], in [9] and in experiment [10] was greater than 100 µM throughout.
As to `COC(C/C=C\C=C\CC/C=C/CC(C)/C=C/C(=C\C(=O)O)CC(=O)O)/C(C)=C\C=C(/C)C(=O)O` (stereo not given), the TGI in experiment [1], in experiment [2], in [3], in experiment [4], in experiment [5] and in [6] was greater than 100 µM in each case. For the same molecule, the TGI in experiment [7], in experiment [8], in experiment [9] and in experiment [10] was greater than 100 µM throughout.
For the molecule `Cn1c(=O)[nH]n(-c2ccc3ccccc3c2)c1=O`, the TGI in experiment [1], in experiment [2], in experiment [3], in [4], in [5] and in experiment [6] was greater than 100 µM in each case. Moreover, the TGI in [7], in [8], in experiment [9] and in experiment [10] was greater than 100 µM throughout.
With `COCCN(C(=O)c1ccccc1)C1CCC(=O)c2[nH]c3ccccc3c21` (stereo not given), the TGI was greater than 75.5 µM in experiment [1]; 36.9 µM in [2]; 28.4 µM in experiment [3]; 17.8 µM in experiment [4]; 20.2 µM in experiment [5]; 21.1 µM in experiment [6]. Moreover, the TGI in [7] came to 16.5 µM; in [8] it was 35.5 µM; in experiment [9] it was 36.5 µM; in experiment [10], 25.2 µM.
As to `CC(C)CCCC(C)[C@H]1CC[C@H]2NCCCC[C@]12C` (stereo not given in full), the TGI in [1] amounted to 15.8 µM; in experiment [2] it was 23.8 µM; in experiment [3] it was 32.2 µM; in experiment [4], 7.82 µM; in [5], 3.39 µM; in experiment [6], 18.7 µM. The TGI turned out to be 16 µM in experiment [7], 11.9 µM in experiment [8], 3.91 µM in experiment [9] and 20.7 µM in experiment [10].
In the case of `O=C1c2ccccc2C2(c3ccc(Cl)cc3)N[C@@H]3CCCC[C@@H]3N12` (stereo not given in full), the TGI in [1], in [2], in experiment [3], in experiment [4], in [5] and in experiment [6] was greater than 100 µM each time. The TGI in experiment [7], in [8], in experiment [9] and in experiment [10] was greater than 100 µM in each case.
As for `Cc1ccc(C2(N3CCOCC3)OC(C)(C)c3cccc4cccc2c34)cc1` (stereo not given), the TGI in experiment [1] amounted to 46 µM; in [2], 34.9 µM; in experiment [3], 28.7 µM; in experiment [4], 30.5 µM; in experiment [5], 35.1 µM; in experiment [6], 32.5 µM. The TGI amounted to 30.5 µM in experiment [7], 39 µM in experiment [8], 27.8 µM in experiment [9] and 31 µM in experiment [10].
Turning to `Cn1c(O)c(/C=N/c2ncccn2)c(=O)[nH]c1=O`, the TGI in experiment [1], in experiment [2], in experiment [3], in experiment [4], in [5] and in experiment [6] was greater than 100 µM throughout. The TGI in experiment [7], in experiment [8], in experiment [9] and in [10] was greater than 100 µM in each case.
As to `C=C(C)[C@@H]1CC[C@]2(C(=O)OC3OC(COC4OC(CO)C(OC5OC(C)C(O)C(O)C5O)C(O)C4O)C(O)C(O)C3O)CC[C@]3(C)[C@H](CC[C@@H]4[C@@]5(C)CC[C@H](O)[C@@](C)(CO)[C@@H]5CC[C@]43C)[C@@H]12` (stereo not given in full), the TGI in [1] was greater than 9.62 µM; in experiment [2], greater than 5.57 µM; in experiment [3], 9.89 µM; in experiment [4] it was 6.22 µM; in experiment [5], greater than 8.46 µM; in experiment [6] it was 9.79 µM. Also, the TGI is greater than 10 µM in experiment [7], greater than 10 µM in experiment [8], 4.76 µM in experiment [9] and greater than 10 µM in [10].
Take `Nc1cc2ncnc(Nc3cccc(Br)c3)c2cn1`: the TGI in experiment [1] is greater than 100 µM; in experiment [2], greater than 100 µM; in experiment [3], greater than 100 µM; in [4], 69.7 µM; in [5] it was greater than 100 µM; in experiment [6] it was greater than 100 µM. For the same molecule, the TGI is greater than 100 µM in experiment [7], 8.18 µM in experiment [8], greater than 100 µM in [9] and greater than 100 µM in experiment [10].
Take `O=C1/C(=C(/Br)I)c2ccccc2-c2ccccc21`: the TGI was greater than 100 µM in experiment [1]; 46.4 µM in experiment [2]; 31.1 µM in [3]; 31.5 µM in experiment [4]; 31.1 µM in [5]; 33.7 µM in experiment [6]. Also, the TGI was found to be 29.7 µM in experiment [7], 21.3 µM in [8], 21.2 µM in [9] and 6.2 µM in [10].
Consider `O=c1oc2ccccc2c(O)c1C(c1ccc(O)cc1)c1c(O)c2ccccc2oc1=O`, for which the TGI in experiment [1] is greater than 100 µM; in experiment [2] it was greater than 100 µM; in experiment [3], 67.2 µM; in experiment [4], greater than 100 µM; in experiment [5], greater than 100 µM; in experiment [6], greater than 100 µM. The TGI in [7] was 97.8 µM; in experiment [8], greater than 100 µM; in [9], greater than 100 µM; in experiment [10], greater than 100 µM.
In the case of `O=P1(N(CCCl)CCCl)NCCCO1` (stereo not given), the TGI is greater than 250 µM in [1]; greater than 250 µM in [2]; greater than 250 µM in experiment [3]; greater than 238 µM in [4]; greater than 250 µM in experiment [5]; greater than 250 µM in experiment [6]. Moreover, the TGI in [7], in experiment [8], in [9] and in experiment [10] was greater than 250 µM in each case.
